# Measured values from PubChem BioAssay (NCI).
#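 Each compound was tested at five concentrations against cells in 96-well plates for 48 hours. Definition used: TGI = concentration required for complete inhibition of growth.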
# Key:
# Test in all cases: DTP human tumour cell line panel, 48 h
# [1] = system: DU-145 prostate
# [2] = system: NCI-H226 lung
# [3] = system: KM12 colon
# [4] = system: OVCAR-3 ovarian
# [5] = system: HOP-92 NSCLC
# [6] = system: PC-3 prostate
# [7] = system: SF-295 CNS
# [8] = system: MDA-MB-435
# [9] = system: MCF7 breast
# [10] = system: ACHN renal
# [11] = system: UACC-257 melanoma
# [12] = system: OVCAR-5 ovarian
# [13] = system: A498 renal
# [14] = system: HCC-2998 colon
# [15] = system: HL-60(TB) leukemia
# [16] = system: SK-MEL-2 melanoma
# [17] = system: M14 melanoma
# [18] = system: OVCAR-8 ovarian
# [19] = system: SW-620 colon
# [20] = system: RXF 393 renal
# [21] = system: MDA-MB-231 breast
# [22] = system: UO-31 renal
# [23] = system: NCI-H460 lung
# [24] = system: LOX IMVI melanoma
# [25] = system: HS 578T breast
# [26] = system: IGROV1 ovarian
# [27] = system: OVCAR-4 ovarian
# [28] = system: HCT-116 colon
# [29] = system: HCT-15 colon
# [30] = system: SNB-75 CNS
# [31] = system: SK-MEL-28 melanoma
# [32] = system: HT29 colon
# [33] = system: SF-268 CNS
# [34] = system: SNB-19 CNS
# [35] = system: HOP-62 NSCLC
# [36] = system: T-47D breast
# [37] = system: MALME-3M melanoma
# [38] = system: 786-0 renal
# [39] = system: RPMI-8226 leukemia
# [40] = system: SN12C renal
# [41] = system: SR leukemia
# [42] = system: SK-OV-3 ovarian
# [43] = system: SK-MEL-5 melanoma
# [44] = system: UACC-62 melanoma
# [45] = system: BT-549 breast
# [46] = system: CAKI-1 renal
# [47] = system: NCI-H522 lung
# [48] = system: MOLT-4 leukemia
# [49] = system: COLO 205 colon
# [50] = system: U251 CNS
# [51] = system: NCI/ADR-RES ovarian
# [52] = system: CCRF-CEM leukemia
# [53] = system: A549 NSCLC
# [54] = system: MDA-N
# [55] = system: EKVX NSCLC
# [56] = system: NCI-H23 lung
# [57] = system: K-562 leukemia
# [58] = system: SF-539 CNS
# [59] = system: TK-10 renal
smiles,measurement,setting,value
COc1ncc(C#CC(=O)c2ccccc2)c(OC)n1,TGI,[1],19.7 µM
same,TGI,[2],5.46 µM
same,TGI,[3],22.9 µM
same,TGI,[4],10.3 µM
same,TGI,[5],4.3 µM
same,TGI,[6],4.43 µM
same,TGI,[7],36 µM
same,TGI,[8],11.5 µM
same,TGI,[9],1.96 µM
same,TGI,[10],3.7 µM
same,TGI,[11],14.7 µM
same,TGI,[12],12.8 µM
same,TGI,[13],32.4 µM
same,TGI,[14],13.3 µM
same,TGI,[15],4.68 µM
same,TGI,[16],13.4 µM
same,TGI,[17],10.5 µM
same,TGI,[18],8.72 µM
same,TGI,[19],4.84 µM
same,TGI,[20],3.79 µM
same,TGI,[21],5.49 µM
same,TGI,[22],5.44 µM
same,TGI,[23],38 µM
same,TGI,[24],3 µM
same,TGI,[25],87 µM
same,TGI,[26],7.49 µM
same,TGI,[27],12.9 µM
same,TGI,[28],10.1 µM
same,TGI,[29],3.18 µM
same,TGI,[30],14 µM
same,TGI,[31],11.4 µM
same,TGI,[32],5.07 µM
same,TGI,[33],26.4 µM
same,TGI,[34],31.6 µM
same,TGI,[35],42 µM
same,TGI,[36],15.8 µM
same,TGI,[37],3.62 µM
same,TGI,[38],4.2 µM
same,TGI,[39],> 21.9 µM
same,TGI,[40],2.78 µM
same,TGI,[41],4.68 µM
same,TGI,[42],42.1 µM
same,TGI,[43],6.68 µM
same,TGI,[44],8.78 µM
same,TGI,[45],5.33 µM
same,TGI,[46],7.3 µM
same,TGI,[47],2.81 µM
same,TGI,[48],2.38 µM
same,TGI,[49],5.08 µM
same,TGI,[50],9.59 µM
same,TGI,[51],7.73 µM
same,TGI,[52],2.07 µM
same,TGI,[53],33.1 µM
same,TGI,[54],3.73 µM
same,TGI,[55],9.16 µM
same,TGI,[56],10.9 µM
CCNC1=C(NC(=O)CCl)C(=O)c2ccccc2C1=O,TGI,[1],> 10 µM
same,TGI,[2],48.2 µM
same,TGI,[3],32 µM
same,TGI,[4],31.5 µM
same,TGI,[5],36.2 µM
same,TGI,[6],30.3 µM
same,TGI,[7],36.9 µM
same,TGI,[8],36.4 µM
same,TGI,[9],47.4 µM
same,TGI,[10],31.9 µM
same,TGI,[11],> 10 µM
same,TGI,[12],34.2 µM
same,TGI,[14],> 10 µM
same,TGI,[15],88.9 µM
same,TGI,[17],42.6 µM
same,TGI,[18],38.3 µM
same,TGI,[19],74.6 µM
same,TGI,[20],30.6 µM
same,TGI,[21],40.9 µM
same,TGI,[23],57.4 µM
same,TGI,[25],60.6 µM
same,TGI,[26],> 10 µM
same,TGI,[27],30.7 µM
same,TGI,[28],33.7 µM
same,TGI,[29],33.6 µM
same,TGI,[30],> 10 µM
same,TGI,[57],> 100 µM
same,TGI,[31],31.7 µM
same,TGI,[32],> 10 µM
same,TGI,[33],32.8 µM
same,TGI,[58],44.5 µM
same,TGI,[34],54.5 µM
same,TGI,[35],30.2 µM
same,TGI,[36],44.7 µM
same,TGI,[37],34.9 µM
same,TGI,[59],31.5 µM
same,TGI,[38],> 100 µM
same,TGI,[39],> 100 µM
same,TGI,[40],32.8 µM
same,TGI,[41],80.3 µM
same,TGI,[42],> 10 µM
same,TGI,[43],30.3 µM
same,TGI,[45],> 10 µM
same,TGI,[47],32.2 µM
same,TGI,[48],55.5 µM
same,TGI,[49],> 10 µM
same,TGI,[50],35.9 µM
same,TGI,[51],44 µM
same,TGI,[52],58.1 µM
same,TGI,[53],99.6 µM
same,TGI,[54],29.2 µM
same,TGI,[55],29.6 µM
same,TGI,[56],36 µM
